Test results reported in the supplement of paper PMC10307832.

Columns and labels:
Assay in all cases: relative viability (nuclei count vs DMSO), 5 days (fraction); higher = more cells survive
[1] = test system: NCI-H1792
Summary of the method: (§1)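 Relative viability is defined as nuclei in treated wells over nuclei in vehicle wells. Duplicate plates were run and medians reported. Lung cancer cell lines in 1536-well plates were dosed by pin tool one day after seeding, with one drug or with a fixed anchor-drug dose plus five library-drug doses (not always all listed) in √10 steps, and nuclei were counted after 5 days.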

[2] = test system: LXF-289
Summary of the method: as §1

[3] = test system: NCI-H1355
Summary of the method: as §1

[4] = test system: NCI-H727
Summary of the method: as §1

[5] = test system: SW 900
Summary of the method: as §1

[6] = test system: NCI-H596
Summary of the method: as §1

[7] = test system: NCI-H661
Summary of the method: as §1

[8] = test system: NCI-H441
Summary of the method: as §1

[9] = test system: LCLC-103H
Summary of the method: as §1

[10] = test system: PC-14
Summary of the method: as §1

[11] = test system: NCI-H460
Summary of the method: as §1

[12] = test system: SK-MES-1
Summary of the method: as §1

[13] = test system: RERF-LC-KJ
Summary of the method: as §1

[14] = test system: NCI-H1755
Summary of the method: as §1

[15] = test system: NCI-H1915
Summary of the method: as §1

[16] = test system: NCI-H2170
Summary of the method: as §1

[17] = test system: NCI-H2347
Summary of the method: as §1

[18] = test system: NCI-H1563
Summary of the method: as §1

[19] = test system: NCI-H3122
Summary of the method: as §1

[20] = test system: NCI-H322M
Summary of the method: as §1

[21] = test system: NCI-H1651
Summary of the method: as §1

[22] = test system: NCI-H650
Summary of the method: as §1

[23] = test system: NCI-H520
Summary of the method: as §1

C=C1C(=O)O[C@@H](CCCCCCCC)[C@@H]1C(=O)O [C-75] + COc1cccc2cc(-c3nc([C@H]4CC[C@H](C(=O)O)CC4)n4ncnc(N)c34)[nH]c12 [OSI-027] (partner 0.5 µM)
relative viability ([1]; first compound 0.08 µM): 0.694
relative viability ([1]; first compound 0.253 µM): 0.695
relative viability ([1]; first compound 0.8 µM): 0.636
relative viability ([1]; first compound 2.53 µM): 0.419
relative viability ([1]; first compound 8 µM): 0.712
relative viability ([2]; first compound 0.08 µM): 0.844
relative viability ([2]; first compound 0.253 µM): 0.758
relative viability ([2]; first compound 0.8 µM): 0.719
relative viability ([2]; first compound 2.53 µM): 0.642
relative viability ([2]; first compound 8 µM): 0.713
relative viability ([3]; first compound 0.08 µM): 0.49
relative viability ([3]; first compound 0.253 µM): 0.441
relative viability ([3]; first compound 0.8 µM): 0.391
relative viability ([3]; first compound 2.53 µM): 0.348
relative viability ([3]; first compound 8 µM): 0.5
relative viability ([4]; first compound 0.08 µM): 0.893
relative viability ([4]; first compound 0.253 µM): 0.894
relative viability ([4]; first compound 0.8 µM): 0.575
relative viability ([4]; first compound 8 µM): 0.98
relative viability ([5]; first compound 0.08 µM): 0.555
relative viability ([5]; first compound 0.253 µM): 0.842
relative viability ([5]; first compound 0.8 µM): 0.441
relative viability ([5]; first compound 2.53 µM): 0.509
relative viability ([5]; first compound 8 µM): 0.45
relative viability ([6]; first compound 0.08 µM): 0.887
relative viability ([6]; first compound 0.253 µM): 0.798
relative viability ([6]; first compound 0.8 µM): 0.72
relative viability ([6]; first compound 2.53 µM): 0.622
relative viability ([6]; first compound 8 µM): 0.678
relative viability ([7]; first compound 0.08 µM): 0.697
relative viability ([7]; first compound 0.253 µM): 0.71
relative viability ([7]; first compound 0.8 µM): 0.72
relative viability ([7]; first compound 2.53 µM): 0.635
relative viability ([7]; first compound 8 µM): 0.736
relative viability ([8]; first compound 0.08 µM): 0.512
relative viability ([8]; first compound 0.253 µM): 0.713
relative viability ([8]; first compound 0.8 µM): 0.678
relative viability ([8]; first compound 2.53 µM): 0.36
relative viability ([8]; first compound 8 µM): 0.548
relative viability ([9]; first compound 0.08 µM): 0.471
relative viability ([9]; first compound 0.253 µM): 0.495
relative viability ([9]; first compound 0.8 µM): 0.432
relative viability ([9]; first compound 2.53 µM): 0.337
relative viability ([9]; first compound 8 µM): 0.472
relative viability ([10]; first compound 0.08 µM): 0.774
relative viability ([10]; first compound 0.253 µM): 0.958
relative viability ([10]; first compound 0.8 µM): 0.687
relative viability ([10]; first compound 2.53 µM): 0.767
relative viability ([10]; first compound 8 µM): 0.856
relative viability ([11]; first compound 0.08 µM): 0.664
relative viability ([11]; first compound 0.253 µM): 0.751
relative viability ([11]; first compound 0.8 µM): 0.59
relative viability ([11]; first compound 8 µM): 0.527
relative viability ([12]; first compound 0.08 µM): 0.738
relative viability ([12]; first compound 0.253 µM): 0.666
relative viability ([12]; first compound 0.8 µM): 0.568
relative viability ([12]; first compound 2.53 µM): 0.469
relative viability ([12]; first compound 8 µM): 0.549
relative viability ([13]; first compound 0.08 µM): 0.713
relative viability ([13]; first compound 0.253 µM): 0.63
relative viability ([13]; first compound 0.8 µM): 0.514
relative viability ([13]; first compound 2.53 µM): 0.552
relative viability ([13]; first compound 8 µM): 0.561
relative viability ([14]; first compound 0.08 µM): 0.767
relative viability ([14]; first compound 0.253 µM): 0.724
relative viability ([14]; first compound 0.8 µM): 0.711
relative viability ([14]; first compound 2.53 µM): 0.604
relative viability ([14]; first compound 8 µM): 0.72
relative viability ([15]; first compound 0.08 µM): 0.656
relative viability ([15]; first compound 0.253 µM): 0.588
relative viability ([15]; first compound 0.8 µM): 0.61
relative viability ([15]; first compound 2.53 µM): 0.382
relative viability ([15]; first compound 8 µM): 0.588
relative viability ([16]; first compound 0.08 µM): 0.797
relative viability ([16]; first compound 0.253 µM): 0.78
relative viability ([16]; first compound 0.8 µM): 0.706
relative viability ([16]; first compound 2.53 µM): 0.321
relative viability ([16]; first compound 8 µM): 0.703
relative viability ([17]; first compound 0.08 µM): 0.408
relative viability ([17]; first compound 0.253 µM): 0.523
relative viability ([17]; first compound 0.8 µM): 0.44
relative viability ([17]; first compound 8 µM): 0.478
relative viability ([18]; first compound 0.08 µM): 0.806
relative viability ([18]; first compound 0.253 µM): 0.856
relative viability ([18]; first compound 0.8 µM): 0.791
relative viability ([18]; first compound 2.53 µM): 0.718
relative viability ([18]; first compound 8 µM): 0.79
relative viability ([19]; first compound 0.08 µM): 1.1
relative viability ([19]; first compound 0.253 µM): 1.27
relative viability ([19]; first compound 0.8 µM): 0.971
relative viability ([19]; first compound 8 µM): 0.854
relative viability ([20]; first compound 0.08 µM): 0.543
relative viability ([20]; first compound 0.253 µM): 0.7
relative viability ([20]; first compound 0.8 µM): 0.583
relative viability ([20]; first compound 2.53 µM): 0.478
relative viability ([20]; first compound 8 µM): 0.588
relative viability ([21]; first compound 0.08 µM): 0.712
relative viability ([21]; first compound 0.253 µM): 0.838
relative viability ([21]; first compound 0.8 µM): 0.768
relative viability ([21]; first compound 2.53 µM): 0.635
relative viability ([21]; first compound 8 µM): 0.815
relative viability ([22]; first compound 0.08 µM): 0.611
relative viability ([22]; first compound 0.253 µM): 0.401
relative viability ([22]; first compound 0.8 µM): 0.494
relative viability ([22]; first compound 2.53 µM): 0.448
relative viability ([22]; first compound 8 µM): 0.524
relative viability ([23]; first compound 0.08 µM): 0.237
relative viability ([23]; first compound 0.253 µM): 0.338
relative viability ([23]; first compound 0.8 µM): 0.242
relative viability ([23]; first compound 2.53 µM): 0.221
relative viability ([23]; first compound 8 µM): 0.294
